Results as given in patent US20110301142A1, “ANTAGONISTS OF LYSOPHOSPHATIDIC ACID RECEPTORS” (priority 2008, published 2011).

Assays:
human LPA1 = molecular target: T1, human LPA1 (Homo sapiens, UniProt Q92633); experiment: LPA1 calcium flux assay (HLPA1 Ca Flux); format: cell-based; details: Human LPA1 expressing CHO cells, stimulated with 10 nM LPA
T1 construct: the full-length cDNA for human LPA1 was obtained by PCR of the reverse transcription reaction; expressed in transfected cells
Procedure, shortened: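 CHO cells stably expressing cloned human LPA1, serum-starved overnight and loaded with Calcium 4 dye, were preincubated 30 min at room temperature with compound. Cells were then challenged with 10 nM LPA and intracellular Ca2+ measured; IC50 values came from titration curves.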

human LPA3 = molecular target: T2, human LPA3 (Homo sapiens, UniProt Q9UBY5); experiment: LPA3 calcium flux assay; format: cell-based; details: Human LPA3 expressing CHO cells, stimulated with 10 nM LPA; read-out: HLPA3 Ca Flux IC50
T2 construct: The full-length cDNA fragment for human LPA3 was obtained by PCR from the vector; expressed in transfected cells; cDNA from the Missouri S&T cDNA Resource Center
T2 sequence (Q9UBY5 1-353): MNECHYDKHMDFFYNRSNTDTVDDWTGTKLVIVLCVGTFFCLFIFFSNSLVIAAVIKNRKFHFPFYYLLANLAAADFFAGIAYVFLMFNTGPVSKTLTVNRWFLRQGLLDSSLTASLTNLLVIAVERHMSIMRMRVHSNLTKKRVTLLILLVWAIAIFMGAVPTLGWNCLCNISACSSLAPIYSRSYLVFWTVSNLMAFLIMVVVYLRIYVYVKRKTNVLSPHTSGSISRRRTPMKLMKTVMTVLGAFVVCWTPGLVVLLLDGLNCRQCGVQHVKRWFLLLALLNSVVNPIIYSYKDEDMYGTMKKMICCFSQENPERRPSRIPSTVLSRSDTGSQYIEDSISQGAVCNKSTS
Procedure, shortened: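 Stably transfected CHO cells, serum-starved overnight, loaded with Calcium 4 dye 1 h at 37 °C in HBSS/20 mM Hepes with 0.3% fatty-acid-free HSA. Compounds preincubated 30 min at room temperature, then cells stimulated with 10 nM LPA; intracellular Ca2+ read by fluorescence; IC50 from titration curves.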

T1 sequence (Q92633 whole entry): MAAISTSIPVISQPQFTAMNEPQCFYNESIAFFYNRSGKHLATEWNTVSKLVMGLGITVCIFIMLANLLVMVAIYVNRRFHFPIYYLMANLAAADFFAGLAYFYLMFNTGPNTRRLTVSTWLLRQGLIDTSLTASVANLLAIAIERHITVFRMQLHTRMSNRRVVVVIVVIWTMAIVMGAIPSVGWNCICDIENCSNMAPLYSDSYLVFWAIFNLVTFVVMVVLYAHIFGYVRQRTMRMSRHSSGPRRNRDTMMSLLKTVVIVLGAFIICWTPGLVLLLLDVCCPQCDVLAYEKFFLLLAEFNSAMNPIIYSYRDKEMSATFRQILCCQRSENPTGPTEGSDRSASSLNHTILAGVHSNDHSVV

Row | Compound | IC50 (human LPA1) | IC50 (human LPA3)
1 | Cc1noc(-c2ccc(-c3ccc(C(C)(C)C(=O)O)cc3)cc2)c1NC(=O)O[C@H](C)c1ccccc1Cl [Compound 1-89, 2-(4′-{4-[(R)-1-(2-Chloro-phenyl)-ethoxycarbonylamino]-3-methyl-isoxazol-5-yl}-biphenyl-4-yl)-2-methyl-propionic acid] | < 300 nM | 300 to 1000 nM
2 | Cc1noc(-c2ccc(-c3ccc(C(C)(C)C(=O)O)cc3)cc2)c1NC(=O)O[C@H](C)c1ccccc1F [Compound 1-90, 2-(4′-{4-[(R)-1-(2-Fluoro-phenyl)-ethoxycarbonylamino]-3-methyl-isoxazol-5-yl}-biphenyl-4-yl)-2-methyl-propionic acid] | < 300 nM | 1000 to 50000 nM
3 | Cc1noc(-c2ccc(-c3ccc(C(C)C(=O)O)cc3)cc2)c1NC(=O)O[C@H](C)c1ccccc1F (stereo partly drawn) [Compound 1-91, 2-(4′-{4-[(R)-1-(2-Fluoro-phenyl)-ethoxycarbonylamino]-3-methyl-isoxazol-5-yl}-biphenyl-4-yl)-propionic acid] | < 300 nM | 1000 to 50000 nM
4 | Cc1noc(-c2ccc(-c3ccc(C(C)C(=O)O)cc3)cc2)c1NC(=O)O[C@H](C)c1ccccc1Cl (stereo partly drawn) [Compound 1-92, 2-(4′-{4-[(R)-1-(2-Chloro-phenyl)-ethoxycarbonylamino]-3-methyl-isoxazol-5-yl}-biphenyl-4-yl)-propionic acid] | < 300 nM | 300 to 1000 nM
5 | Cc1noc(-c2ccc(-c3nc(C(=O)O)cs3)cc2)c1NC(=O)OC(C)c1ccccc1Cl (centres unmarked) [Compound 1-93, 2-(4-{4-[1-(2-Chloro-phenyl)-ethoxycarbonylamino]-3-methyl-isoxazol-5-yl}-phenyl)-thiazole-4-carboxylic acid] | < 300 nM | 1000 to 50000 nM
6 | Cc1noc(-c2ccc(-c3ncc(C(=O)O)s3)cc2)c1NC(=O)OC(C)c1ccccc1Cl (centres unmarked) [Compound 1-94, 2-(4-{4-[1-(2-Chloro-phenyl)-ethoxycarbonylamino]-3-methyl-isoxazol-5-yl}-phenyl)-thiazole-5-carboxylic acid] | < 300 nM | 1000 to 50000 nM
7 | COC(=O)Cc1cccc(Oc2ccc(-c3onc(C)c3NC(=O)O[C@H](C)c3ccccc3F)cc2)c1 [Compound 1-95, [3-(4-{4-[1-(2-Fluoro-phenyl)-ethoxycarbonylamino]-3-methyl-isoxazol-5-yl}-phenoxy)-phenyl]acetic acid methyl ester] | < 300 nM | 1000 to 50000 nM
8 | Cc1noc(-c2ccc(Oc3cccc(CC(=O)O)c3)cc2)c1NC(=O)O[C@H](C)c1ccccc1F [Compound 1-96, [3-(4-{4-[1-(2-Fluoro-phenyl)-ethoxycarbonylamino]-3-methyl-isoxazol-5-yl}-phenoxy)-phenyl]-acetic acid] | < 300 nM | 1000 to 50000 nM
9 | Cc1noc(-c2ccc(CS(=O)(=O)c3ccc(CC(=O)O)cc3)cc2)c1NC(=O)OC(C)c1ccccc1Cl (centres unmarked) [Compound 1-97, [4-(4-{4-[1-(2-Chloro-phenyl)-ethoxycarbonylamino]-3-methyl-isoxazol-5-yl}-phenylmethanesulfonyl)-phenyl]-acetic acid] | < 300 nM | 1000 to 50000 nM

Further lines, results first:

Row | IC50 (human LPA1) | IC50 (human LPA3) | Compound
10 | < 300 nM | 1000 to 50000 nM | COC(=O)Cc1ccc(-c2ccc(-c3onc(C)c3NC(=O)OC(C)c3ccccc3Cl)cc2)cc1 (centres unmarked) [Compound 1-69, (4′-{4-[1-(2-Chloro-phenyl)-ethoxycarbonylamino]-3-methyl-isoxazol-5-yl}-biphenyl-4-yl)-acetic acid methyl ester]
11 | < 300 nM | 1000 to 50000 nM | Cc1noc(-c2ccc(-c3ccc(C(C)C(=O)O)cc3)cc2)c1NC(=O)OC(C)c1ccccc1Cl (centres unmarked) [Compound 1-71, 2-(4′-{4-[1-(2-Chloro-phenyl)-ethoxycarbonylamino]-3-methyl-isoxazol-5-yl}-biphenyl-4-yl)-propionic acid]
12 | < 300 nM | 1000 to 50000 nM | Cc1noc(-c2ccc(-c3ccc(C(C)C(=O)O)cc3)cc2)c1NC(=O)OC(C)c1ccccc1F (centres unmarked) [Compound 1-74, 2-(4′-{4-[1-(2-Fluoro-phenyl)-ethoxycarbonylamino]-3-methyl-isoxazol-5-yl}-biphenyl-4-yl)-propionic acid]
13 | < 300 nM | 1000 to 50000 nM | Cc1noc(-c2ccc(-c3cccc(C(=O)O)c3)cc2)c1NC(=O)OC(C)c1ccccc1Cl (centres unmarked) [Compound 1-76, 4′-{4-[1-(2-Chloro-phenyl)-ethoxycarbonylamino]-3-methyl-isoxazol-5-yl}-biphenyl-3-carboxylic acid]
14 | < 300 nM | 1000 to 50000 nM | Cc1noc(-c2ccc(-c3ccc(CC(=O)O)cc3)cc2)c1NC(=O)OC(C)c1ccc(Cl)cc1F (centres unmarked) [Compound 1-77, (4′-{4-[1-(4-Chloro-2-fluoro-phenyl)-ethoxycarbonylamino]-3-methyl-isoxazol-5-yl}-biphenyl-4-yl)-acetic acid]
15 | < 300 nM | 1000 to 50000 nM | Cc1noc(-c2ccc(-c3ccc(CC(=O)O)cc3)cc2)c1NC(=O)O[C@H](C)c1ccccc1F [Compound 1-78, (4′-{4-[(R)-1-(2-Fluoro-phenyl)-ethoxycarbonylamino]-3-methyl-isoxazol-5-yl}-biphenyl-4-yl)-acetic acid]
16 | < 300 nM | 1000 to 50000 nM | Cc1noc(-c2ccc(COc3ccccc3CC(=O)O)cc2)c1NC(=O)OC(C)c1ccccc1Cl (centres unmarked) [Compound 1-79, [2-(4-{4-[1-(2-Chloro-phenyl)-ethoxycarbonylamino]-3-methyl-isoxazol-5-yl}-benzyloxy)-phenyl]-acetic acid]
17 | < 300 nM | 1000 to 50000 nM | Cc1noc(-c2ccc(Cc3cccc(CC(=O)O)c3)cc2)c1NC(=O)O[C@H](C)c1ccccc1F [Compound 1-80, [3-(4-{4-[(R)-1-(2-Fluoro-phenyl)-ethoxycarbonylamino]-3-methyl-isoxazol-5-yl}-benzyl)-phenyl]acetic acid]
18 | < 300 nM | 1000 to 50000 nM | Cc1noc(-c2ccc(Cc3ccc(CC(=O)O)cc3)cc2)c1NC(=O)O[C@H](C)c1ccccc1F [Compound 1-81, [4-(4-{4-[(R)-1-(2-Fluoro-phenyl)-ethoxycarbonylamino]-3-methyl-isoxazol-5-yl}-benzyl)-phenyl]-acetic acid]
19 | < 300 nM | 1000 to 50000 nM | Cc1noc(-c2ccc(Oc3ccc(CC(=O)O)cc3)cc2)c1NC(=O)O[C@H](C)c1ccccc1F [Compound 1-84, [4-(4-{4-[(R)-1-(2-Fluoro-phenyl)-ethoxycarbonylamino]-3-methyl-isoxazol-5-yl}-phenoxy)-phenyl]-acetic acid]
20 | < 300 nM | 1000 to 50000 nM | Cc1cc(-c2onc(C)c2NC(=O)O[C@H](C)c2ccccc2F)ccc1-c1ccc(CC(=O)O)cc1 [Compound 1-85, (4′-{4-[(R)-1-(2-Fluoro-phenyl)-ethoxycarbonylamino]-3-methyl-isoxazol-5-yl}-2′-methyl-biphenyl-4-yl)-acetic acid]
21 | < 300 nM | 1000 to 50000 nM | Cc1noc(-c2ccc(-c3ccc(C(C)(C)C(=O)O)cc3)cc2)c1NC(=O)OC(C)c1ccccc1F (centres unmarked) [Compound 1-86, 2-(4′-{4-[1-(2-Fluoro-phenyl)-ethoxycarbonylamino]-3-methyl-isoxazol-5-yl}-biphenyl-4-yl)-2-methyl-propionic acid]
22 | < 300 nM | 1000 to 50000 nM | Cc1noc(-c2ccc(-c3ccc(C(C)(C)C(=O)O)cn3)cc2)c1NC(=O)OC(C)c1ccccc1F (centres unmarked) [Compound 1-87, 2-[6-(4-{4-[1-(2-Fluoro-phenyl)-ethoxycarbonylamino]-3-methyl-isoxazol-5-yl}-phenyl)-pyridin-3-yl]-2-methyl-propionic acid]
